Here are results for 38 compounds from patent US20030095958A1, “Inhibitors of bace” (priority 2001, published 2003).

Bounds are passed on as bounds.

Chain of BACE (P56817 46-501): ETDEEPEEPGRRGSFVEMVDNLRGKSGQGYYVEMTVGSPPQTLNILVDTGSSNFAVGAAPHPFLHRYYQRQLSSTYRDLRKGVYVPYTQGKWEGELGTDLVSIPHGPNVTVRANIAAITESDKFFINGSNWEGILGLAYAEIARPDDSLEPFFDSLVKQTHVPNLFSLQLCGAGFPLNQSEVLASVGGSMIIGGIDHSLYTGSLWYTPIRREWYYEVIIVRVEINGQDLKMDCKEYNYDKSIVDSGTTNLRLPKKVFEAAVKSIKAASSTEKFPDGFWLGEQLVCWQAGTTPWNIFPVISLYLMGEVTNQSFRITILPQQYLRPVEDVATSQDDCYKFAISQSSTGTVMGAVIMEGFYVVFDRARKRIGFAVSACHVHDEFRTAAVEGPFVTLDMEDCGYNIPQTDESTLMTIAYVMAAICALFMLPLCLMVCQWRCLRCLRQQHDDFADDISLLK

The experiment concerns the target BACE (Homo sapiens, UniProt P56817). Description: Ki Determination for the Inhibition of BACE (FS-1 peptide fluorescence cleavage assay). The experiment is classed as biochemical. The conditions noted are these: apparent Ki; 50 nM BACE, 10 μM FS-1 substrate, 0.1M sodium acetate pH 4.5. The method, boiled down:
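Human BACE (50 nM) was preincubated 15 min at room temperature with compound (2% DMSO) in 0.1 M sodium acetate pH 4.5, then 10 μM FS-1 peptide was added. Cleavage was followed by fluorescence (ex 355/em 495 nm), and apparent Ki came from fitting to the integrated competitive tight-binding inhibition equation.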
Regarding `COC(=O)c1cc(C2=CCNCC2)c(COc2ccccc2C(F)(F)F)cc1-c1ccoc1` [Compound 383, 2-Furan-3-yl-5-(1,2,3,6-tetrahydro-pyridin-4-yl)-4-(2-trifluoromethyl-phenoxymethyl)-benzoic acid methyl ester], the Ki was 3 to 30 µM.

As for `O=C(OCc1ccccc1-c1ccc(C2=CCNCC2)c(COc2ccccc2C(F)(F)F)c1)c1cccnc1Cl` [Compound 384, 2-Chloro-nicotinic acid 4′-(1,2,3,6-tetrahydro-pyridin-4-yl)-3′-(2-trifluoromethyl-phenoxymethyl)-biphenyl-2-ylmethyl ester], the Ki was less than 3 µM.

Take `O=C(OCc1cc(C2=CCNCC2)c(COc2ccccc2C(F)(F)F)cc1-c1ccoc1)c1cccnc1` [Compound 385, Nicotinic acid 2-furan-3-yl-5-(1,2,3,6-tetrahydro-pyridin-4-yl)-4-(2-trifluoromethyl-phenoxymethyl)-benzyl ester]: the Ki is less than 3 µM.

As for `O=C(OCc1cc(C2=CCNCC2)c(COc2ccccc2C(F)(F)F)cc1-c1ccoc1)c1cccnc1Cl` [Compound 386, 2-Chloro-nicotinic acid 2-furan-3-yl-5-(1,2,3,6-tetrahydro-pyridin-4-yl)-4-(2-trifluoromethyl-phenoxymethyl)-benzyl ester], the Ki is less than 3 µM.

As for `OCc1cc(C2=CCNCC2)c(COc2ccccc2C(F)(F)F)cc1-c1ccoc1` [Compound 387, [2-Furan-3-yl-5-(1,2,3,6-tetrahydro-pyridin-4-yl)-4-(2-trifluoromethyl-phenoxymethyl)-phenyl]-methanol], the Ki was 3 to 30 µM.

Consider `CN1CC=C(c2cc(CO)c(-c3ccoc3)cc2COc2ccccc2C(F)(F)F)CC1` [Compound 388, [2-Furan-3-yl-5-(1-methyl-1,2,3,6-tetrahydro-pyridin-4-yl)-4-(2-trifluoromethyl-phenoxymethyl)-phenyl]-methanol], for which the Ki lay within 3 to 30 µM.

Take `O=C(OCc1cc(C2=CCNCC2)c(COc2ccccc2C(F)(F)F)cc1-c1ccoc1)c1ccccn1` [Compound 389, Pyridine-2-carboxylic acid 2-furan-3-yl-5-(1,2,3,6-tetrahydro-pyridin-4-yl)-4-(2-trifluoromethyl-phenoxymethyl)-benzyl ester]: the Ki is 3 to 30 µM.

Consider `O=C(OCc1cc(C2=CCNCC2)c(COc2ccccc2C(F)(F)F)cc1-c1ccoc1)c1ccncc1` [Compound 390, Isonicotinic acid 2-furan-3-yl-5-(1,2,3,6-tetrahydro-pyridin-4-yl)-4-(2-trifluoromethyl-phenoxymethyl)-benzyl ester], for which the Ki is less than 3 µM.

As for `c1ccc(-c2ccc(C3CCNCC3OCc3ccc4ccccc4c3)cc2)cc1` (centres unmarked) [Compound 401], the Ki is less than 3 µM.

Take `O=C(Nc1ccc2ccccc2c1)C1CNCCC1c1ccc(-c2ccccc2)cc1` (centres unmarked) [Compound 402]: the Ki is less than 3 µM.

On to `O=C(Nc1ccc2ccccc2c1)NC1CNCCC1c1ccc(-c2ccccc2)cc1` (centres unmarked) [Compound 403], for which the Ki was in the range of 3 to 30 µM.

On to `CC(NC(=O)C1CNCCC1c1ccc(-c2ccccc2)cc1)c1cccc2ccccc12` (centres unmarked) [Compound 404], for which the Ki was 3 to 30 µM.

Turning to `CC(NC(=O)C1CNCCC1c1ccc(-c2ccccc2)cc1)c1cccc2ccccc12` (centres unmarked) [Compound 405], the Ki was in the range of 3 to 30 µM.

Regarding `CC(NC(=O)C1CNCCC1c1ccc(-c2ccccc2)cc1)c1cccc2ccccc12` (centres unmarked) [Compound 406], the Ki lay in the range of 3 to 30 µM.

Turning to `CC(NC(=O)C1CNCCC1c1ccc(-c2ccccc2)cc1)c1cccc2ccccc12` (centres unmarked) [Compound 407], the Ki lay within 3 to 30 µM.

In the case of `OC1CNCC(COc2ccc3ccccc3c2)C1(O)c1ccc(-c2ccccc2)cc1` (centres unmarked) [Compound 412], the Ki was in the range of 3 to 30 µM.

On to `FC(F)(F)c1cccc(COC2CNCC(COc3ccc4ccccc4c3)C2c2ccc(-c3ccccc3)cc2)c1` (centres unmarked) [Compound 413], for which the Ki is less than 3 µM.

For `COc1ccc2c(c1)c1c(n2C(=O)c2ccc3ccccc3c2)CNCC1` [Compound 502, (6-Methoxy-1,2,3,4-tetrahydro-b-carbolin-9-yl)-naphthalen-2-yl-methanone], the Ki is more than 30 µM.

`COc1ccc2c(c1)c1c(n2Cc2ccc3ccccc3c2)CNCC1` [Compound 503, 6-Methoxy-9-naphthalen-2-ylmethyl-2,3,4,9-tetrahydro-1H-b-carboline]: the Ki is more than 30 µM.

In the case of `O=C(c1cccc2ccccc12)n1c2c(c3cc(OCc4ccccc4C(F)(F)F)ccc31)CCNC2` [Compound 504, Naphthalen-1-yl-[6-(2-trifluoromethyl-benzyloxy)-1,2,3,4-tetrahydro-b-carbolin-9-yl]-methanone], the Ki was less than 3 µM.

On to `FC(F)(F)c1ccccc1COc1ccc2c(c1)c1c(n2Cc2cccc3ccccc23)CNCC1` [Compound 505, 9-Naphthalen-1-ylmethyl-6-(2-trifluoromethyl-benzyloxy)-2,3,4,9-tetrahydro-1H-b-carboline], for which the Ki is less than 3 µM.

Regarding `O=C(c1cccc2ccccc12)n1c2c(c3cc(OCc4ccc(C(F)(F)F)cc4)ccc31)CCNC2` [Compound 506, Naphthalen-1-yl-[6-(4-trifluoromethyl-benzyloxy)-1,2,3,4-tetrahydro-b-carbolin-9-yl]-methanone], the Ki is less than 3 µM.

With `O=C(c1ccc2ccccc2c1)n1c2c(c3cc(OCc4cccc(C(F)(F)F)c4)ccc31)CCNC2` [Compound 507, Naphthalen-2-yl-[6-(3-trifluoromethyl-benzyloxy)-1,2,3,4-tetrahydro-b-carbolin-9-yl]-methanone], the Ki was less than 3 µM.

With `O=C(c1cccc2ccccc12)n1c2c(c3cc(OCc4cccc(C(F)(F)F)c4)ccc31)CCNC2` [Compound 508, Naphthalen-1-yl-[6-(3-trifluoromethyl-benzyloxy)-1,2,3,4-tetrahydro-b-carbolin-9-yl]-methanone], the Ki was less than 3 µM.

On to `FC(F)(F)c1cccc(COc2ccc3c(c2)c2c(n3Cc3cccc4ccccc34)CNCC2)c1` [Compound 509, 9-Naphthalen-1-ylmethyl-6-(3-trifluoromethyl-benzyloxy)-2,3,4,9-tetrahydro-1H-b-carboline], for which the Ki is less than 3 µM.

On to `O=C(c1cccc2ccccc12)n1c2c(c3cc(OCc4cc(C(F)(F)F)ccc4Cl)ccc31)CCNC2` [Compound 510, [6-(2-Chloro-5-trifluoromethyl-benzyloxy)-1,2,3,4-tetrahydro-b-carbolin-9-yl]-naphthalen-1-yl-methanone], for which the Ki is less than 3 µM.

Take `O=C(c1ccc2ccccc2c1)n1c2c(c3cc(OCc4cc(C(F)(F)F)ccc4Cl)ccc31)CCNC2` [Compound 511, [6-(2-Chloro-5-trifluoromethyl-benzyloxy)-1,2,3,4-tetrahydro-b-carbolin-9-yl]-naphthalen-2-yl-methanone]: the Ki was less than 3 µM.

Take `FC(F)Oc1ccc(COc2ccc3c(c2)c2c(n3Cc3cccc4ccccc34)CNCC2)cc1` [Compound 512, 6-(4-Difluoromethoxy-benzyloxy)-9-naphthalen-1-ylmethyl-2,3,4,9-tetrahydro-1H-b-carboline]: the Ki is less than 3 µM.

With `FC(F)Oc1ccc(COc2ccc3c(c2)c2c(n3Cc3ccc4ccccc4c3)CNCC2)cc1` [Compound 513, 6-(4-Difluoromethoxy-benzyloxy)-9-naphthalen-2-ylmethyl-2,3,4,9-tetrahydro-1H-b-carboline], the Ki is less than 3 µM.

For the compound `O=C(c1cccc2ccccc12)n1c2c(c3cc(OCc4ccc(OC(F)F)cc4)ccc31)CCNC2` [Compound 514, [6-(4-Difluoromethoxy-benzyloxy)-1,2,3,4-tetrahydro-b-carbolin-9-yl]-naphthalen-1-yl-methanone], the Ki is less than 3 µM.

On to `O=C(c1ccc2ccccc2c1)n1c2c(c3cc(OCc4ccc(OC(F)F)cc4)ccc31)CCNC2` [Compound 515, [6-(4-Difluoromethoxy-benzyloxy)-1,2,3,4-tetrahydro-b-carbolin-9-yl]-naphthalen-2-yl-methanone], for which the Ki is less than 3 µM.

For `FC(F)Oc1ccccc1COc1ccc2c(c1)c1c(n2Cc2ccc3ccccc3c2)CNCC1` [Compound 516, 6-(2-Difluoromethoxy-benzyloxy)-9-naphthalen-2-ylmethyl-2,3,4,9-tetrahydro-1H-b-carboline], the Ki was less than 3 µM.

For `O=C(c1cccc2ccccc12)n1c2c(c3cc(OCc4cc(C(F)(F)F)ccc4C(F)(F)F)ccc31)CCNC2` [Compound 517, [6-(2,5-Bis-trifluoromethyl-benzyloxy)-1,2,3,4-tetrahydro-b-carbolin-9-yl]-naphthalen-1-yl-methanone], the Ki was less than 3 µM.

Consider `FC(F)Oc1ccccc1COc1ccc2c(c1)c1c(n2Cc2cccc3ccccc23)CNCC1` [Compound 518, 6-(2-Difluoromethoxy-benzyloxy)-9-naphthalen-1-ylmethyl-2,3,4,9-tetrahydro-1H-b-carboline], for which the Ki is less than 3 µM.

Take `c1ccc2cc(COc3ccc4c(c3)c3c(n4Cc4ccc5ccccc5c4)CNCC3)ccc2c1` [Compound 519, 6-(Naphthalen-2-ylmethoxy)-9-naphthalen-2-ylmethyl-2,3,4,9-tetrahydro-1H-b-carboline]: the Ki was less than 3 µM.

With `Ic1ccccc1COc1ccc2c(c1)c1c(n2Cc2cccc3ccccc23)CNCC1` [Compound 520, 6-(2-Iodo-benzyloxy)-9-naphthalen-1-ylmethyl-2,3,4,9-tetrahydro-1H-b-carboline], the Ki is less than 3 µM.

In the case of `Cc1c(COc2ccc3c(c2)c2c(n3Cc3cccc4ccccc34)CNCC2)cccc1C(F)(F)F` [Compound 521, 6-(2-Methyl-3-trifluoromethyl-benzyloxy)-9-naphthalen-1-ylmethyl-2,3,4,9-tetrahydro-1H-b-carboline], the Ki is less than 3 µM.

With `Cc1c(COc2ccc3c(c2)c2c(n3Cc3ccc4ccccc4c3)CNCC2)cccc1C(F)(F)F` [Compound 522, 6-(2-Methyl-3-trifluoromethyl-benzyloxy)-9-naphthalen-2-ylmethyl-2,3,4,9-tetrahydro-1H-b-carboline], the Ki is less than 3 µM.
